Values joined by “and” are separate entries in the source; they are usually repeats but may differ in a detail not shown here. Equal values may be shown once. Read-outs that look alike come from different tables or passages of the source.
How the values were obtained:
[1] = Precipitation in 1 mM intermediate solutions (visual and microscopic examination); type: physicochemical; conditions: for Appearance of 1 mM solution in 5% F127: 1 mM in 5% F127, room temperature; for Appearance of 1 mM/FSW intermediate solution: 1 mM in FSW
Description: Stock solutions of albendazole 1 and isoxazole 2 were prepared in DMSO and 2-pyrrolidone at 10 mM concentration, and stock solutions of chalcones 3 and 4 were prepared in DMSO at 10 mM concentration. […] The precipitation of compounds was analyzed via both visual and microscopic examination.

sea urchin embryos = tested on: sea urchin embryos
Description: Toxic effects were assessed by exposing fertilized eggs (5−18 min after fertilization) to 2-fold decreasing concentrations of Pluronics. Embryo development was monitored at room temperature until the beginning of active feeding (four-arm mid-pluteus stage). The effects were detected at the following developmental stages: cleavage (2.5 and 5.5–6 h after fertilization), hatched mid-blastula (8.5–9.5 h), mesenchyme blastula (~11 h), prism (20–21 h), early pluteus (25–27 h), and four-arm pluteus (34–35 h) (Figure S2). The effects were estimated quantitatively as no observed effect concentration (NOEC), minimum effective concentration (MEC), and minimum lethal concentration (MLC).

[2] = Aqueous solubility of chalcones in PBS or Pluronic solutions (UV absorbance of saturated supernatant); type: physicochemical; conditions: for Increase of solubility: Pluronic P123 concentration up to 10%, 25 °C; for Increase of solubility / solubility: PBS pH 7.4; for Enhancement of solubility in aqueous medium: in the presence of 5% Pluronic 123; for solubility: phosphate-buffered saline (PBS) without Pluronics, aqueous with cosolvent or surfactant or cyclodextrin, kinetic from dmso stock, without Pluronics
Description: The absorbance of chalcone solutions in DMSO was measured using an Ultrospec 1100 Pro UV/Vis spectrophotometer. […] To this end, 100 mg/mL solutions of 3 and 4 in DMSO were prepared and diluted 10-fold either with neat PBS or with Pluronic solutions of various concentrations. Dilution with PBS yielded the precipitation of the most part of the solute. The precipitated chalcones were removed via centrifugation at 9000 rpm for 5 min. The supernatant represented a saturated solution of the chalcone in the aqueous medium. Then, the supernatants were 10–1000-fold diluted with DMSO, their absorbance was measured at 367 nm for 3 or 350 nm for 4, and the aqueous solubility of chalcones was calculated using the εDMSO values obtained previously. The solubility values were measured in 2–4 repetitions and presented in the graphs as the mean ± SD for p < 0.05.

[3] = pH 7.0; cited from earlier work
[4] = solvents in the in vivo sea urchin embryo assay

COc1ccc(-c2cnoc2-c2cc(OC)c(OC)c(OC)c2)cc1 [compound 2]
Appearance of 1 mM solution in 5% F127 [1]: remained clear throughout four days of storage at room temperature | Appearance of 1 mM/FSW intermediate solution [1]: opaque, followed by the precipitation of crystals in the bottom of the vial

C[S+](C)[O-] [DMSO]
NOEC (sea urchin embryos; [4]): 0.2 % v/v

COc1ccc(/C=C/C(=O)c2cc(OC)c(OC)c(OC)c2)cc1O [compound 3]
Appearance of 1 mM/FSW intermediate solution [1]: clear without any visible signs of precipitation | Increase of solubility [2]: 13 fold | Enhancement of solubility in aqueous medium [2]: enhanced by an order of magnitude | solubility [2]: 344 µg/mL and 1000 µM

CCO [EtOH]
NOEC (sea urchin embryos; in vivo): 0.5 % v/v

COc1ccc(/C=C/C(=O)c2cc(OC)c(OC)c(OC)c2)cc1 [compound 4]
Appearance of 1 mM/FSW intermediate solution [1]: formed a thick suspension of fine crystals | Increase of solubility [2]: 19 fold | Enhancement of solubility in aqueous medium [2]: enhanced by an order of magnitude | solubility [2]: 88.7 µg/mL and 270 µM

Pluronic P123
MEC relative to CMC (sea urchin embryos; in vivo): ~ 6 times | Reduction of MEC (sea urchin embryos; in vivo): 4 times

CCCSc1ccc2nc(NC(=O)OC)[nH]c2c1 [compound 1, albendazole]
Appearance of 1 mM solution in 5% F127 [1]: formed opaque 1 mM solution in 5% F127 | Appearance of 1 mM/FSW intermediate solution [1]: formed a thick suspension of fine crystals | Aqueous solubility [3]: < 1 µg/mL

O=C1CCCN1 [2-pyrrolidone, 2-Pyrrolidone]
NOEC (sea urchin embryos; [4]): 0.1 % v/v

Source: publication PMC10572563, “Application of Pluronics for Enhancing Aqueous Solubility of Lipophilic Microtubule Destabilizing Compounds on the Sea Urchin Embryo Model” (International Journal of Molecular Sciences, 2023)
